According to ChEMBL document CHEMBL1201862, “PubChem BioAssay data set” (2004):
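Growth conditions: 96-well plates. Treatment: test compound, 48 hours, 5 concentrations. Analysis: linear interpolation between bracketing concentrations; unreached endpoints set to highest concentration. Abbreviation: GI50, concentration required for 50% inhibition of growth.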 Activity calls are given as the source filed them. No stated cut-off is given here; in the data, active = GI50 up to about 1.1 µM and inactive = higher.

Assays:
Test in all cases: NCI anticancer screen, dose series, 48 h
[1] = tested on: SF-268
[2] = tested on: HT-29
[3] = tested on: SK-MEL-2
[4] = tested on: UACC-62
[5] = tested on: SK-OV-3
[6] = tested on: NCI-H23
[7] = tested on: NCI-H460
[8] = tested on: 786-0
[9] = tested on: BT-549
[10] = tested on: MCF7
[11] = tested on: HCT-15
[12] = tested on: CCRF-CEM
[13] = tested on: TK-10
[14] = tested on: K562
[15] = tested on: Hs-578T
[16] = tested on: COLO 205
[17] = tested on: UO-31
[18] = tested on: RXF 393
[19] = tested on: SF-539
[20] = tested on: NCI-H522
[21] = tested on: T47D
[22] = tested on: HCT-116
[23] = tested on: PC-3
[24] = tested on: U-251
[25] = tested on: RPMI-8226
[26] = tested on: M14
[27] = tested on: NCI-H226
[28] = tested on: SW-620
[29] = tested on: UACC-257
[30] = tested on: Malme-3M
[31] = tested on: DU-145
[32] = tested on: EKVX
[33] = tested on: A549
[34] = tested on: MDA-MB-231
[35] = tested on: OVCAR-8
[36] = tested on: HOP-92
[37] = tested on: ACHN
[38] = tested on: CAKI-1
[39] = tested on: SF-295
[40] = tested on: SNB-75
[41] = tested on: NCI/ADR-RES
[42] = tested on: SNB-19
[43] = tested on: OVCAR-5
[44] = tested on: SK-MEL-5
[45] = tested on: KM12
[46] = tested on: MDA-N
[47] = tested on: MDA-MB-435
[48] = tested on: HL-60
[49] = tested on: MOLT-4
[50] = tested on: SK-MEL-28
[51] = tested on: OVCAR-3
[52] = tested on: OVCAR-4
[53] = tested on: SN12C
[54] = tested on: HCC 2998
[55] = tested on: SR
[56] = tested on: HOP-62
[57] = tested on: IGROV-1
[58] = tested on: A498
[59] = tested on: LOX IMVI

Cc1nc2c(c(N3CCN(C)CC3)n1)Cc1ccccc1-2
GI50 [1]: 62.4 µM (inactive)
GI50 [2]: 44.1 µM (inactive)
GI50 [3]: 75.5 µM (inactive)
GI50 [4]: 42.6 µM (inactive)
GI50 [5]: > 100 µM (inactive)
GI50 [6]: 57.8 µM (inactive)
GI50 [7]: 18.8 µM (inactive)
GI50 [8]: 68.2 µM (inactive)
GI50 [9]: 24.3 µM (inactive)
GI50 [10]: 70.3 µM (inactive)
GI50 [11]: 32.5 µM
GI50 [12]: 65.2 µM (inactive)
GI50 [13]: 31.4 µM (inactive)
GI50 [14]: 34.6 µM (inactive)
GI50 [15]: 65 µM (inactive)
GI50 [16]: 37.3 µM (inactive)
GI50 [17]: 15 µM (inactive)
GI50 [18]: > 100 µM (inactive)
GI50 [19]: 84.7 µM (inactive)
GI50 [20]: 16.9 µM (inactive)
GI50 [21]: > 100 µM (inactive)
GI50 [22]: 46.5 µM (inactive)
GI50 [23]: 58.7 µM (inactive)
GI50 [24]: 75.3 µM (inactive)
GI50 [25]: > 100 µM (inactive)
GI50 [26]: 50.9 µM (inactive)
GI50 [27]: 45.8 µM (inactive)
GI50 [28]: 31 µM (inactive)
GI50 [29]: 57 µM (inactive)
GI50 [30]: 40.8 µM (inactive)
GI50 [31]: > 100 µM (inactive)
GI50 [32]: 42.4 µM (inactive)
GI50 [33]: 44.2 µM (inactive)
GI50 [34]: 37.8 µM (inactive)
GI50 [35]: 54 µM (inactive)
GI50 [36]: 36.7 µM (inactive)
GI50 [37]: 34.2 µM (inactive)
GI50 [38]: 17.1 µM (inactive)
GI50 [39]: 42.4 µM (inactive)
GI50 [40]: 91.2 µM (inactive)
GI50 [41]: 49.5 µM (inactive)
GI50 [42]: 24.9 µM (inactive)
GI50 [43]: 80.7 µM (inactive)
GI50 [44]: 51.2 µM (inactive)
GI50 [45]: 48 µM (inactive)
GI50 [46]: 58.5 µM (inactive)
GI50 [47]: 64.7 µM (inactive)
GI50 [48]: 42.1 µM (inactive)
GI50 [49]: > 10 µM (inactive)

CC(C)=C1C(=O)C[C@@]2(C)C[C@H]3OC3(C)CC/C=C(/C)CCC12 (some centres not stated)
GI50 [2]: 53.7 µM (inactive)
GI50 [4]: 50.5 µM (inactive)
GI50 [6]: 91.8 µM (inactive)
GI50 [7]: 62.4 µM (inactive)
GI50 [9]: 99.5 µM (inactive)
GI50 [10]: 71.9 µM (inactive)
GI50 [11]: 75.9 µM
GI50 [50]: > 100 µM (inactive)
GI50 [12]: 58.7 µM (inactive)
GI50 [13]: > 100 µM (inactive)
GI50 [14]: 50.6 µM (inactive)
GI50 [15]: > 100 µM (inactive)
GI50 [17]: 68.2 µM (inactive)
GI50 [18]: > 10 µM (inactive)
GI50 [51]: 56.8 µM (inactive)
GI50 [20]: 27.8 µM (inactive)
GI50 [21]: 49.4 µM (inactive)
GI50 [52]: 90.8 µM (inactive)
GI50 [22]: 65 µM (inactive)
GI50 [23]: 25.2 µM (inactive)
GI50 [27]: 69.7 µM (inactive)
GI50 [29]: 50.4 µM (inactive)
GI50 [53]: > 100 µM (inactive)
GI50 [30]: > 100 µM (inactive)
GI50 [31]: > 100 µM (inactive)
GI50 [32]: 48.2 µM (inactive)
GI50 [33]: 75.2 µM (inactive)
GI50 [34]: > 100 µM (inactive)
GI50 [54]: > 100 µM (inactive)
GI50 [40]: 80 µM (inactive)
GI50 [41]: 18.3 µM (inactive)
GI50 [44]: > 100 µM (inactive)
GI50 [46]: > 100 µM (inactive)
GI50 [47]: 64 µM (inactive)
GI50 [48]: 21.8 µM (inactive)
GI50 [49]: 35.4 µM (inactive)
GI50 [55]: 70.6 µM (inactive)

N#Cc1cc2c(cc1C#N)/C(=N\c1cccc(N)n1)N/C2=N\c1cccc(N)n1
GI50 [1]: 15.1 µM (inactive)
GI50 [2]: 23.1 µM (inactive)
GI50 [3]: 21.6 µM (inactive)
GI50 [4]: 15.2 µM (inactive)
GI50 [5]: 13.7 µM (inactive)
GI50 [56]: 24.3 µM (inactive)
GI50 [6]: 16.1 µM (inactive)
GI50 [7]: 22.4 µM (inactive)
GI50 [8]: 12.9 µM (inactive)
GI50 [9]: 32.2 µM (inactive)
GI50 [10]: 18.6 µM (inactive)
GI50 [11]: 16.3 µM
GI50 [50]: 18.8 µM (inactive)
GI50 [12]: 4.74 µM (inactive)
GI50 [13]: 19.3 µM (inactive)
GI50 [14]: 13.4 µM (inactive)
GI50 [15]: 18.5 µM (inactive)
GI50 [16]: 15 µM (inactive)
GI50 [17]: 15.7 µM (inactive)
GI50 [51]: 29.5 µM (inactive)
GI50 [19]: 6.75 µM (inactive)
GI50 [20]: 9.38 µM (inactive)
GI50 [21]: 21.8 µM (inactive)
GI50 [22]: 11.1 µM (inactive)
GI50 [23]: 17.9 µM (inactive)
GI50 [24]: 32.5 µM (inactive)
GI50 [25]: 32.7 µM (inactive)
GI50 [26]: 17.5 µM (inactive)
GI50 [27]: > 100 µM (inactive)
GI50 [28]: 11.4 µM (inactive)
GI50 [29]: 28.1 µM (inactive)
GI50 [57]: 20.7 µM (inactive)
GI50 [53]: 32.9 µM (inactive)
GI50 [30]: 14.3 µM (inactive)
GI50 [31]: > 100 µM (inactive)
GI50 [32]: > 100 µM (inactive)
GI50 [33]: 40.8 µM (inactive)
GI50 [58]: > 10 µM (inactive)
GI50 [34]: 15.2 µM (inactive)
GI50 [35]: 23.6 µM (inactive)
GI50 [37]: 20.4 µM (inactive)
GI50 [54]: 20.5 µM (inactive)
GI50 [38]: 15.8 µM (inactive)
GI50 [39]: 21.3 µM (inactive)
GI50 [40]: 15.6 µM (inactive)
GI50 [59]: 18.8 µM (inactive)
GI50 [41]: 19.2 µM (inactive)
GI50 [42]: 70 µM (inactive)
GI50 [43]: > 100 µM (inactive)
GI50 [44]: 7.16 µM (inactive)
GI50 [45]: 36.8 µM (inactive)
GI50 [46]: 20.3 µM (inactive)
GI50 [47]: 19.1 µM (inactive)
GI50 [48]: 19.1 µM (inactive)
GI50 [49]: 3.78 µM (inactive)
GI50 [55]: 4.85 µM (inactive)
